test: recombinant barcode read abundance after kanamycin selection (control-corrected) (log10(CPM+1)); higher = more efficient recombination; sequences stand for … in AGTGCAGAGAAAATCGGCCAGTTTTCTCTGCCTGCAGTCCGCATGCCGT…AGATTTATGCAGCGGACTGCCTTTCTCCCAAAGTGATAAACCGGACAGTATCATGGACCGGTTTTCCCGGTAATCCGTATTTGCAAGGTTGGTTTCACT; site = the 11-nt target
Summary of the method: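 The screen was pooled in E. coli and paired targets with IS621 bridge RNA target-binding loops. Recombination efficiency is taken from barcode counts per million at recombinant junctions, averaged and adjusted against the control. Values, in the form log10(CPM+1), come from duplicate plating on chloramphenicol/ampicillin LB agar or on chloramphenicol/ampicillin/kanamycin with 0.1 mM IPTG.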
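Further: IS621 recombinase and bridge RNA in Escherichia coli cells.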

Sequence | recombinant barcode read abundance (log10)
GTGCGCCCTTGGGTTCTAACCTGTTGCGT (site GTGCGCCCTAC) | 2.13
GTGCGCCCTTGGGTTCTAACCTGTTGCGT (site GTGCGCCCTCC) | 0.617
GTGGAGGCTTGGGTTCTAACCTGTTGCCT (site ATGGCGGCTAG) | 0.371
GTGGAGGCTTGGGTTCTAACCTGTTGCCT (site GTGGAGGCTAG) | 1.5
GTGGAGTCTTGGGTTCTAACCTGTTGCGT (site GTGGAGTCTAC) | 1.49
GTGGAGTCTTGGGTTCTAACCTGTTGCGT (site TATCCTCCTCG) | 0.0104
GTGGCGTCTTGGGTTCTAACCTGTTGCCT (site GTGGCGTCTAG) | 1.79
GTGGCGTCTTGGGTTCTAACCTGTTGCCT (site TTGGCCTCTAG) | 0.104
GTGGGCGCTTGGGTTCTAACCTGTTGCCT (site GTAGGCGCTAG) | 0.973
GTGGGCGCTTGGGTTCTAACCTGTTGCCT (site GTCGGCGCTAG) | 0.165
GTGGGCGCTTGGGTTCTAACCTGTTGCCT (site GTGGGCGCTAG) | 1.33
GTGGGCGCTTGGGTTCTAACCTGTTGCCT (site GTTGGCGCTAG) | 0.524
GTGGTAACTTGGGTTCTAACCTGTTGCCT (site GTGGTAACTAG) | 0.647
GTGGTAACTTGGGTTCTAACCTGTTGCCT (site GTGGTACCTAG) | 0.19
GTGGTAACTTGGGTTCTAACCTGTTGCCT (site GTGGTAGCTAG) | 0.3
GTGGTAACTTGGGTTCTAACCTGTTGCCT (site GTGGTATCTAG) | 0.0678
GTGTACTCTTGGGTTCTAACCTGTTGCTT (site GTGGACTCTTA) | 0.0612
GTGTACTCTTGGGTTCTAACCTGTTGCTT (site GTGTACTCTAA) | 1.35
GTGTATCCTTGGGTTCTAACCTGTTGCAT (site GTGTATCCTAT) | 1.7
GTGTATCCTTGGGTTCTAACCTGTTGCAT (site GTGTCTCCTAT) | 0.279
GTGTATCCTTGGGTTCTAACCTGTTGCAT (site GTGTGTCCTAT) | 0.0301
GTGTATCCTTGGGTTCTAACCTGTTGCAT (site GTGTTTCCTAT) | 0.0918
GTGTGAACTTGGGTTCTAACCTGTTGCCG (site GAGTTAACTCG) | 0.0504
GTGTGAACTTGGGTTCTAACCTGTTGCCG (site GTGTGAACTCG) | 0.992
GTGTTTGCTTGGGTTCTAACCTGTTGCCT (site GAGTTTGCTAG) | 0.0456
GTGTTTGCTTGGGTTCTAACCTGTTGCCT (site GCGTTTGCTAG) | 0.0586

Sequence | recombinant barcode read abundance (log10)
GTGTTTGCTTGGGTTCTAACCTGTTGCCT (site GGGTTTGCTAG) | 0.0616
GTGTTTGCTTGGGTTCTAACCTGTTGCCT (site GTGTTTGCTAG) | 0.596
GTTAGAACTTGGGTTCTAACCTGTTGCTT (site CCATTGTCTCG) | 0.0117
GTTAGAACTTGGGTTCTAACCTGTTGCTT (site GTTAGAACTAA) | 0.123
GTTCAAACTTGGGTTCTAACCTGTTGCAT (site ATTCAAACTAG) | 0.245
GTTCAAACTTGGGTTCTAACCTGTTGCAT (site GTTCAAACTAT) | 1.2
GTTCAGACTTGGGTTCTAACCTGTTGCCT (site GTACAGACTAG) | 1.15
GTTCAGACTTGGGTTCTAACCTGTTGCCT (site GTCCAGACTAG) | 0.948
GTTCAGACTTGGGTTCTAACCTGTTGCCT (site GTGCAGACTAG) | 0.0632
GTTCAGACTTGGGTTCTAACCTGTTGCCT (site GTTCAGACTAG) | 1.58
GTTCCCTCTTGGGTTCTAACCTGTTGCTT (site GCTCACTCTAA) | 0.245
GTTCCCTCTTGGGTTCTAACCTGTTGCTT (site GTTCCCTCTAA) | 1.9
GTTCGGACTTGGGTTCTAACCTGTTGCGG (site GATCGGACTCC) | 0.634
GTTCGGACTTGGGTTCTAACCTGTTGCGG (site GTTCGGACTCC) | 2.69
GTTGCGGCTTGGGTTCTAACCTGTTGCCT (site GTTACGGCTAG) | 0.44
GTTGCGGCTTGGGTTCTAACCTGTTGCCT (site GTTCCGGCTAG) | 0.0471
GTTGCGGCTTGGGTTCTAACCTGTTGCCT (site GTTGCGGCTAG) | 0.898
GTTGCGGCTTGGGTTCTAACCTGTTGCCT (site GTTTCGGCTAG) | 0.34
GTTGGAGCTTGGGTTCTAACCTGTTGCAG (site GTTGGAGCTCT) | 2.24
GTTGGAGCTTGGGTTCTAACCTGTTGCAG (site TATGGAGCTCT) | 0.146
GTTGGAGCTTGGGTTCTAACCTGTTGCCT (site GTTAGAGCTAG) | 1.97
GTTGGAGCTTGGGTTCTAACCTGTTGCCT (site GTTCGAGCTAG) | 0.487
GTTGGAGCTTGGGTTCTAACCTGTTGCCT (site GTTGGAGCTAG) | 2.35
GTTGGAGCTTGGGTTCTAACCTGTTGCCT (site GTTTGAGCTAG) | 0.304
GTTTAGTCTTGGGTTCTAACCTGTTGCCT (site GTTTAATCTAG) | 0.159
GTTTAGTCTTGGGTTCTAACCTGTTGCCT (site GTTTAGTCTAG) | 1.01

Sequence | recombinant barcode read abundance (log10)
GTTTATACTTGGGTTCTAACCTGTTGCGT (site GATGATACTAC) | 0.0203
GTTTATACTTGGGTTCTAACCTGTTGCGT (site GTTTATACTAC) | 0.749
GTTTCAACTTGGGTTCTAACCTGTTGCCA (site CAACACCCTAT) | 0.0582
GTTTCAACTTGGGTTCTAACCTGTTGCCA (site GTTTCAACTTG) | 0.061
GTTTCAACTTGGGTTCTAACCTGTTGCGT (site AAGAACTCTCG) | 0.18
GTTTCAACTTGGGTTCTAACCTGTTGCGT (site GTTTCAACTAC) | 0.729
GTTTCCTCTTGGGTTCTAACCTGTTGCCG (site GGATCCTCTCG) | 0.251
GTTTCCTCTTGGGTTCTAACCTGTTGCCG (site GTTTCCTCTCG) | 0.78
GTTTGACCTTGGGTTCTAACCTGTTGCTT (site GTTTGACCTAA) | 0.532
GTTTGACCTTGGGTTCTAACCTGTTGCTT (site GTTTGCCCTAA) | 0.229
GTTTGACCTTGGGTTCTAACCTGTTGCTT (site GTTTGGCCTAA) | 0.171
GTTTGACCTTGGGTTCTAACCTGTTGCTT (site GTTTGTCCTAA) | 0.0874
GTTTGGACTTGGGTTCTAACCTGTTGCTA (site GTTTGGACTCA) | 0.178
GTTTGGACTTGGGTTCTAACCTGTTGCTA (site GTTTGGACTTA) | 0.904
GTTTGGTCTTGGGTTCTAACCTGTTGCCT (site GTTTGATCTAG) | 0.285
GTTTGGTCTTGGGTTCTAACCTGTTGCCT (site GTTTGCTCTAG) | 0.0727
GTTTGGTCTTGGGTTCTAACCTGTTGCCT (site GTTTGGTCTAG) | 0.405
GTTTGGTCTTGGGTTCTAACCTGTTGCCT (site GTTTGTTCTAG) | 0.0972
GTTTGTTCTTGGGTTCTAACCTGTTGCCT (site GTTTGATCTAG) | 0.0239
GTTTGTTCTTGGGTTCTAACCTGTTGCCT (site GTTTGCTCTAG) | 0.0623
GTTTGTTCTTGGGTTCTAACCTGTTGCCT (site GTTTGGTCTAG) | 0.237
GTTTGTTCTTGGGTTCTAACCTGTTGCCT (site GTTTGTTCTAG) | 0.254
TAAACAGCTTGGGTTCTAACCTGTTGCCT (site TAAACAGCTAG) | 0.0976
TAAACAGCTTGGGTTCTAACCTGTTGCCT (site TACACAGCTAG) | 0.00929
TAAACAGCTTGGGTTCTAACCTGTTGCCT (site TAGACAGCTAG) | 0.171

— the supplement of paper PMC11208160
